From BigSolDB 2.1

Nc1ccc(S(=O)(=O)[O-])c(N)c1.[Na+]
solubility (mole fraction)
Settings | in isopropanol | in methanol | in propylene glycol
273.15 K | 2.2e-05 | 0.000977 | 0.000831
278.15 K | 2.78e-05 | 0.00109 | 0.00121
283.15 K | 3.51e-05 | 0.00145 | 0.00145
288.15 K | 4.43e-05 | 0.00173 | 0.00196
293.15 K | 5.57e-05 | 0.00228 | 0.00235
298.15 K | 6.99e-05 | 0.00274 | 0.0028
303.15 K | 8.76e-05 | 0.00318 | 0.00359
308.15 K | 0.000109 | 0.00395 | 0.00431
313.15 K | 0.000136 | 0.00466 | 0.00577
318.15 K | 0.00017 | 0.00558 | 0.00749
323.15 K | 0.000211 | 0.00661 | 0.00963
